The values below come from patent US4547508A, “1-Phenylisoquinoline derivatives, pharmaceutical products containing these compounds and their use” (Hoechst Aktiengesellschaft, priority 1982, dated 1985).

What is called LD50 is the dose at which mortality reaches 50%. In general, ED50 refers to the midpoint of the dose-response relation. Low readings indicate an effect at a small dose, high ones a need for a large dose. In general, IC50 refers to the concentration that inhibits the measured activity by half. A low value points to greater potency.

A short description of data set [1]: Acute toxicity in the mouse after intraperitoneal administration (ALD50). Further details: species or system male mice (Gassner, NMRI). Particulars: in vivo, ip, deaths within 24 hours after administration. The method, then: A. Acute toxicity in the mouse after intraperitoneal administration (ALD50)
The experimental animals used were male mice (Gassner, NMRI) of body weight 20-30 g. 6 animals were tested in each group. The compounds were suspended in 1% strength methylhydroxyethylcellulose (MH) and administered intraperitoneally (i.p.) to the animals in a volume of 10 ml/kg of body weight. The compounds according to the invention were administered in doses of 3, 10, 30 and 100 mg/kg i.p.
The acute lethal dose (ALD50) was determined graphically from the number of animals which died within 24 hours after administration of the compound.

The test system of data set [2] is tetrabenazine-induced ptosis. The data set is described as follows: Prevention of the ptosis induced by tetrabenazine in mice after intraperitoneal administration. The data set is classed as in vivo, male mice (Gassner, NMRI). To be noted: ip; mouse, i.p., 30 minutes before TBZ 40 mg/kg i.p.; dose which reduces the mean ptosis index (maximum 4) by 50%. The method, then: B. Prevention of the ptosis induced by tetrabenazine in mice after intraperitoneal administration
The experimental animals used were male mice (Gassner, NMRI) of body weight 20-26 g. 5 animals were tested in each group. The compounds were suspended in 1% strength methylhydroxyethylcellulose and administered intraperitoneally (i.p.) to the animals in a volume of 10 ml/kg of body weight. The compounds according to the invention were tested in doses of 5, 10 and 20 mg/kg i.p. The control group merely received 10 ml/kg of MH not containing active ingredient i.p.
The componds were administered to the animals 30 minutes before the i.p. administration of tetrabenazine (TBZ). The control group merely received 1% strength MH and TBZ in accordance with the same schedule as that for the animals treated with the test substances.
30 minutes after the TBZ injection (TBZ: 40 mg/kg i.p.), the animals were placed in individual plastic boxes and the ptosis was assessed 1 minute later in accordance with the scheme below:
Eyes closed = 4 (100% ptosis)
Eyes 3/4 closed = 3 (75% ptosis)
Eyes 1/2 closed = 2 (50% ptosis)
Eyes 1/4 closed = 1 (25% ptosis)
Eyes open = 0 (0% ptosis)
The dose defined as the ED50 is that which reduces the mean ptosis index (maximum 4) by 50%.

The test system of data set [3] is norepinephrine uptake (synaptosomes from rat brain). Nature of the data set: Inhibition of reuptake of norepinephrine in synaptosomes. Type of data set: biochemical. To be noted: 14C-norepinephrine, pH 7.4, 37° C., 4 minutes. The method, then: C. Inhibition of reuptake of norepinephrine in synaptosomes
Synaptosomes from rat brain were isolated by the method of Whittaker (Handbook of Neurochemistry 2, 327-364, Editor A. Lajtha; London and New York, 1969) and the uptake of monoamine was measured by the method of Schacht and Heptner (Biochemical Pharmac. 23, 3413-3422). The ^14 C-norepinephrine uptake was measured in a Krebs-Henseleit bicarbonate buffer pH 7.4 which contained 11 millimoles of glucose. 2.5 ml of the suspension of synaptosomes were incubated with labeled norepinephrine at 37° C. in the presence or absence of the test substance. The incubation time was 4 minutes. Further uptake was then stopped by cooling in ice. In order to exclude non-specific adsorption, control samples were incubated at 0° C. under otherwise identical conditions.
The amounts of norepinephrine taken up were measured using the membrane filtration technique using a Millipore sampling manifold with cellulose nitrate filters of 25 mm diameter and 0.6 micrometer pore size. The synaptosomes were collected under reduced pressure and the radioactivity was determined in a Packard Tricarb scintillation counter. The amount of collected norepinephrine has been reported as a percentage of the radioactivity which was added to the incubation mixture.
The IC50 values (inhibition concentration) in the Table 1 below indicate the concentration of the test substances which show 50% inhibition of the uptake of ^14 C-norepinephrine.

`CN1CC=C(c2cc3ccccc3c(-c3ccccc3Cl)n2)CC1` [Example 6]: the LD50 at 24 h in data set [1] was 100 mg/kg. In data set [2], this molecule showed an ED50 of 0.79 mg/kg. For the same molecule, in data set [3], the IC50 was determined as 33 nM.
For `Cc1ccccc1-c1nc(C2=CCNCC2)cc2ccccc12` [Example 3, 1-(2-Methylphenyl)-3-(1,2,5,6-tetrahydro-4-pyridyl)isoquinoline], in data set [1], the LD50 at 24 h worked out at 210 mg/kg. The same molecule came in with an ED50 in data set [2] of 0.13 mg/kg. Further, in data set [3], 5.6 nM corresponded to half-maximal inhibition (IC50).
In turn, `C=CCN1CCC(c2cc3ccccc3c(-c3ccccc3C)n2)CC1` [Example 23, 3-(1-Allyl-4-piperidinyl)-1-(2-methylphenyl)isoquinoline] showed an LD50 at 24 h in data set [1] of 55 mg/kg. In data set [2], the ED50 turned out to be 3 mg/kg.
For the molecule `CN1CCC=C(c2cc3ccccc3c(-c3ccccc3)n2)C1` [Example 19], the LD50 at 24 h in data set [1] turned out to be 40 mg/kg. The molecule further came in with an ED50 in data set [2] of 3.3 mg/kg. This molecule also had an IC50 in data set [3] of 50 nM.
In the case of `CN1CCC(c2cc3ccccc3c(-c3ccccc3)n2)CC1` [Example 25], in data set [1], the 50% lethal dose (LD50) at 24 h is 28 mg/kg. The molecule further showed an ED50 in data set [2] of 6.59 mg/kg.
On to `c1ccc(-c2nc(C3CCNCC3)cc3ccccc23)cc1` [Example 21, 1-Phenyl-3-(4-piperidinyl)isoquinoline], for which the LD50 at 24 h in data set [1] worked out at 75 mg/kg. This molecule also showed an ED50 in data set [2] of 0.8 mg/kg. Also, the IC50 in data set [3] turned out to be 17 nM.
Taken in the same sequence, the figures for `C1=C(c2cc3ccccc3c(-c3ccccc3)n2)CCNC1` [Example 13] were 300 mg/kg, 0.5 mg/kg and 6.2 nM.
Taken in the same sequence, the figures for `C1=C(c2cc3ccccc3c(-c3ccccc3)n2)CNCC1` [Example 20] were 75 mg/kg, 0.33 mg/kg and 13 nM.
For the molecule `Cc1ccccc1-c1nc(C2CCN(C)CC2)cc2ccccc12` [Example 27], in data set [1], the LD50 at 24 h came to 27 mg/kg. In data set [2], this molecule registered an ED50 of 0.53 mg/kg.
Turning to `CCN1CC=C(c2cc3ccccc3c(-c3ccccc3C)n2)CC1` [Example 2, 3-(1-Ethyl-1,2,5,6-tetrahydro-4-pyridyl)-1-(2-methylphenyl)isoquinoline], the LD50 at 24 h in data set [1] came out at 100 mg/kg. Also, in data set [2], the ED50 worked out at 1.4 mg/kg.
On to `C=CCN1CC=C(c2cc3ccccc3c(-c3ccccc3C)n2)CC1` [Example 11], for which the LD50 at 24 h in data set [1] came out at 300 mg/kg. The ED50 in data set [2] stood at 0.49 mg/kg.
On to `CN1CC=C(c2cc3ccccc3c(-c3ccccc3F)n2)CC1` [Example 8], for which, in data set [1], the LD50 at 24 h stood at 85 mg/kg. For the same molecule, the 50% effect level in data set [2] (ED50) was put at a dose of 0.54 mg/kg. Moreover, 10 nM corresponded to half-maximal inhibition in data set [3] (IC50).
